Assay results reported in patent US20250368608A1, “SELECTIVE HDAC6 INHIBITOR” (ROYAL COLLEGE OF SURGEONS IN IRELAND, priority 2021, published 2025).

Tested on: JJN3 cell line
Assay: Apoptosis assay using JJN3 cell line (annexin V/PI)
Type: cell-based
Details: Homo sapiens, JJN-3; JJN3 cell line, 24 h of treatment
Procedure: Apoptosis was assessed by Annexin V/propidium iodide (Biolegend, 640906, Sigma P4170) staining using LSRII Biosciences, Facscanto. Cell viability was detected by CellTiter-Glo® (My Bio, G3582) according to the manufacture's protocol. Mitochondrial membrane potential was measured by adding Tetramethylrhodamine, ethyl ester (TMRE) (Biosciences, T669) at 20 nM for 30 minutes at 37° C. and assessed by flow cytometry with FACS CANTO II. […]

Row | SMILES | IC50
1 | O=C(CSC1=N[C@@H]2CCCC[C@H]2N1)N1CCOCC1 (racemic) [TTC-01, (±)-trans-2-((2-morpholino-2-oxoethyl)thio)-3a,4,5,6,7,7a-hexahydro-1H-benzo[d]imidazol-3-ium chloride] | > 10 µM
2 | CC(C)(C)OC(=O)N1CCN(C(=O)CSC2=N[C@@H]3CCCC[C@H]3N2)CC1 (racemic) [TTC-08, (±)-trans-2-((2-(4-(tert-butoxycarbonyl)piperazin-1-yl)-2-oxoethyl)thio)-3a,4,5,6,7,7a-hexahydro-1H-benzo[d]imidazol-3-ium chloride] | > 10 µM
3 | O=C(O)C1CCN(C(=O)CSC2=N[C@@H]3CCCC[C@H]3N2)CC1 (racemic) [TTC-16, (±)-trans-2-((2-(4-carboxypiperidin-1-yl)-2-oxoethyl)thio)-3a,4,5,6,7,7a-hexahydro-1H-benzo[d]imidazol-3-ium chloride] | > 10 µM
4 | CCCC1CCN(C(=O)CSC2=N[C@@H]3CCCC[C@H]3N2)CC1 (racemic) [TTC-29, (±)-trans-2-((2-oxo-2-(4-propylpiperidin-1-yl)ethyl)thio)-3a,4,5,6,7,7a-hexahydro-1H-benzo[d]imidazol-3-ium chloride] | < 10 µM
5 | CC(C)(C)C1CCN(C(=O)CSC2=N[C@@H]3CCCC[C@H]3N2)CC1 (racemic) [TTC-31, (±)-trans-2-((2-(4-(tert-butyl)piperidin-1-yl)-2-oxoethyl)thio)-3a,4,5,6,7,7a-hexahydro-1H-benzo[d]imidazol-3-ium chloride] | < 10 µM
6 | Cc1ccc(N2CCN(C(=O)CSC3=N[C@@H]4CCCC[C@H]4N3)CC2)cc1 (racemic) [TTC-38, (±)-trans-2-((2-oxo-2-(4-(p-tolyl)piperazin-1-yl)ethyl)thio)-3a,4,5,6,7,7a-hexahydro-1H-benzo[d]imidazol-3-ium chloride] | > 10 µM
7 | O=C(CSC1=N[C@@H]2CCCC[C@@H]2N1)N1CCOCC1 [TTC-02, cis-2-((2-morpholino-2-oxoethyl)thio)-3a,4,5,6,7,7a-hexahydro-1H-benzo[d]imidazol-3-ium chloride] | > 10 µM
8 | O=C(CSC1=NCCN1)N1CCOCC1 [TTC-09, 2-((2-morpholino-2-oxoethyl)thio)-4,5-dihydro-1H-imidazol-3-ium chloride] | > 10 µM
9 | O=C(CSC1=N[C@@H]2CCCC[C@@H]2N1)N1CCSCC1 [TTC-11, cis-2-((2-oxo-2-thiomorpholinoethyl)thio)-3a,4,5,6,7,7a-hexahydro-1H-benzo[d]imidazol-3-ium chloride] | > 10 µM
10 | CS(=O)(=O)N1CCN(C(=O)CSC2=N[C@@H]3CCCC[C@@H]3N2)CC1 [TTC-12, cis-2-((2-(4-(methylsulfonyl)piperazin-1-yl)-2-oxoethyl)thio)-3a,4,5,6,7,7a-hexahydro-1H-benzo[d]imidazol-3-ium chloride] | > 10 µM
11 | O=C(CSC1=N[C@@H]2CCCC[C@H]2N1)N1CCOCC1 [TTC-19, (+)-(3aR,7aR)-2-((2-morpholino-2-oxoethyl)thio)-3a,4,5,6,7,7a-hexahydro-1H-benzo[d]imidazol-3-ium chloride] | > 10 µM
12 | O=C(CSC1=N[C@H]2CCCC[C@@H]2N1)N1CCOCC1 [TTC-20, (−)-(3aS,7aS)-2-((2-morpholino-2-oxoethyl)thio)-3a,4,5,6,7,7a-hexahydro-1H-benzo[d]imidazol-3-ium chloride] | > 10 µM
13 | O=C(CSc1nc2ccccc2[nH]1)N1CCOCC1 [TTC-21, 2-((1H-benzo[d]imidazol-2-yl)thio)-1-morpholinoethan-1-one] | > 10 µM
14 | O=C(CSc1ncc[nH]1)N1CCOCC1 [TTC-22, 2-((1H-imidazol-2-yl)thio)-1-morpholinoethan-1-one] | > 10 µM
15 | O=C(CSc1nc2c([nH]1)CCCC2)N1CCOCC1 [TTC-23, 1-morpholino-2-((4,5,6,7-tetrahydro-1H-benzo[d]imidazol-2-yl)thio)ethan-1-one] | > 10 µM
16 | O=C(CCCSC1=N[C@H]2CCCC[C@@H]2N1)N1CCOCC1 [TTC-25, 4-(((3aS,7aS)-3a,4,5,6,7,7a-hexahydro-1H-benzo[d]imidazol-2-yl)thio)-1-morpholinobutan-1-one] | > 10 µM

Now from value to compound:

Row | IC50 | SMILES
17 | > 10 µM | O=C(CSC1=N[C@@H]2CCCC[C@H]2N1)N1CCCCC1 (racemic) [TTC-03, (±)-trans-2-((2-oxo-2-(piperidin-1-yl)ethyl)thio)-3a,4,5,6,7,7a-hexahydro-1H-benzo[d]imidazol-3-ium chloride]
18 | > 10 µM | CCN(CC)C(=O)CSC1=N[C@@H]2CCCC[C@H]2N1 (racemic) [TTC-04, (±)-trans-2-((2-(diethylamino)-2-oxoethyl)thio)-3a,4,5,6,7,7a-hexahydro-1H-benzo[d]imidazol-3-ium chloride]
19 | < 10 µM | O=C(CSC1=N[C@@H]2CCCC[C@H]2N1)N1CCSCC1 (racemic) [TTC-05, (±)-trans-2-((2-oxo-2-thiomorpholinoethyl)thio)-3a,4,5,6,7,7a-hexahydro-1H-benzo[d]imidazol-3-ium chloride]
20 | > 10 µM | CS(=O)(=O)N1CCN(C(=O)CSC2=N[C@@H]3CCCC[C@H]3N2)CC1 (racemic) [TTC-06, (±)-trans-2-((2-(4-(methylsulfonyl)piperazin-1-yl)-2-oxoethyl)thio)-3a,4,5,6,7,7a-hexahydro-1H-benzo[d]imidazol-3-ium chloride]
21 | > 10 µM | O=C(CSC1=N[C@@H]2CCCC[C@H]2N1)N1CCN(c2ccccc2)CC1 (racemic) [TTC-07, (±)-trans-2-((2-oxo-2-(4-phenylpiperazin-1-yl)ethyl)thio)-3a,4,5,6,7,7a-hexahydro-1H-benzo[d]imidazol-3-ium chloride]
22 | > 10 µM | O=C(CSC1=N[C@@H]2CCCC[C@H]2N1)N1CCC(O)CC1 (racemic) [TTC-15, (±)-trans-2-((2-(4-hydroxypiperidin-1-yl)-2-oxoethyl)thio)-3a,4,5,6,7,7a-hexahydro-1H-benzo[d]imidazol-3-ium chloride]
23 | > 10 µM | O=C1CN(C(=O)CSC2=N[C@@H]3CCCC[C@H]3N2)CCN1 (racemic) [TTC-17, (±)-trans-2-((2-oxo-2-(3-oxopiperazin-1-yl)ethyl)thio)-3a,4,5,6,7,7a-hexahydro-1H-benzo[d]imidazol-3-ium chloride]
24 | > 10 µM | O=C(CSC1=N[C@@H]2CCCC[C@H]2N1)Nc1ccccc1 (racemic) [TTC-18, (±)-trans-2-((2-oxo-2-(phenylamino)ethyl)thio)-3a,4,5,6,7,7a-hexahydro-1H-benzo[d]imidazol-3-ium chloride]
25 | > 10 µM | CCC1CCN(C(=O)CSC2=N[C@@H]3CCCC[C@H]3N2)CC1 (racemic) [TTC-28, (±)-trans-2-((2-(4-ethylpiperidin-1-yl)-2-oxoethyl)thio)-3a,4,5,6,7,7a-hexahydro-1H-benzo[d]imidazol-3-ium chloride]
26 | > 10 µM | CC(C)C1CCN(C(=O)CSC2=N[C@@H]3CCCC[C@H]3N2)CC1 (racemic) [TTC-30, (±)-trans-2-((2-(4-isopropylpiperidin-1-yl)-2-oxoethyl)thio)-3a,4,5,6,7,7a-hexahydro-1H-benzo[d]imidazol-3-ium chloride]
27 | < 10 µM | O=C(CSC1=N[C@@H]2CCCC[C@H]2N1)N1CCC(C(F)(F)F)CC1 (racemic) [TTC-32, (±)-trans-2-((2-oxo-2-(4-(trifluoromethyl)piperidin-1-yl)ethyl)thio)-3a,4,5,6,7,7a-hexahydro-1H-benzo[d]imidazol-3-ium chloride]
28 | > 10 µM | O=C(CSC1=N[C@@H]2CCCC[C@H]2N1)N1CCC(c2ccccc2)CC1 (racemic) [TTC-33, (±)-trans-2-((2-oxo-2-(4-phenylpiperidin-1-yl)ethyl)thio)-3a,4,5,6,7,7a-hexahydro-1H-benzo[d]imidazol-3-ium chloride]
29 | < 10 µM | CC(=O)NCC1CCN(C(=O)CSC2=N[C@@H]3CCCC[C@H]3N2)CC1 (racemic) [TTC-35, (±)-trans-2-((2-(4-(acetamidomethyl)piperidin-1-yl)-2-oxoethyl)thio)-3a,4,5,6,7,7a-hexahydro-1H-benzo[d]imidazol-3-ium chloride]
30 | > 10 µM | Cc1ccccc1N1CCN(C(=O)CSC2=N[C@@H]3CCCC[C@H]3N2)CC1 (racemic) [TTC-36, (±)-trans-2-((2-oxo-2-(4-(o-tolyl)piperazin-1-yl)ethyl)thio)-3a,4,5,6,7,7a-hexahydro-1H-benzo[d]imidazol-3-ium chloride]
31 | > 10 µM | CC(=O)N1CCN(C(=O)CSC2=N[C@@H]3CCCC[C@H]3N2)CC1 (racemic) [TTC-40, (±)-trans-2-((-(4-acetylpiperazin-1-yl)-2-oxoethyl)thio)-3a,4,5,6,7,7a-hexahydro-1H-benzo[d]imidazol-3-ium chloride]
32 | > 10 µM | O=C(CSC1=N[C@@H]2CCCC[C@H]2N1)N1CCN(C(=O)c2ccccc2)CC1 (racemic) [TTC-41, (±)-trans-2-((2-(4-benzoylpiperazin-1-yl)-2-oxoethyl)thio)-3a,4,5,6,7,7a-hexahydro-1H-benzo[d]imidazol-3-ium chloride]
33 | > 10 µM | O=C(CSC1=N[C@@H]2CCCC[C@@H]2N1)N1CCCCC1 [TTC-10, cis-2-((2-oxo-2-(piperidin-1-yl)ethyl)thio)-3a,4,5,6,7,7a-hexahydro-1H-benzo[d]imidazol-3-ium chloride]
34 | > 10 µM | O=C(CSC1=N[C@@H]2CCCC[C@@H]2N1)N1CCN(c2ccccc2)CC1 [TTC-13, cis-2-((2-oxo-2-(4-phenylpiperazin-1-yl)ethyl)thio)-3a,4,5,6,7,7a-hexahydro-1H-benzo[d]imidazol-3-ium chloride]
35 | > 10 µM | O=C(CCSC1=N[C@H]2CCCC[C@@H]2N1)N1CCOCC1 [TTC-24, 3-(((3aS,7aS)-3a,4,5,6,7,7a-hexahydro-1H-benzo[d]imidazol-2-yl)thio)-1-morpholinopropan-1-one]

Same assay, conditions: JJN3 cells, 24 hr treatment

Row | SMILES | cell death by annexin V/PI
36 | O=C(CSC1=N[C@@H]2CCCC[C@H]2N1)N1CCOCC1 (racemic) [TTC-01, (±)-trans-2-((2-morpholino-2-oxoethyl)thio)-3a,4,5,6,7,7a-hexahydro-1H-benzo[d]imidazol-3-ium chloride] | induces cell death
37 | O=C(CSC1=N[C@@H]2CCCC[C@@H]2N1)N1CCOCC1 [TTC-02, cis-2-((2-morpholino-2-oxoethyl)thio)-3a,4,5,6,7,7a-hexahydro-1H-benzo[d]imidazol-3-ium chloride] | does not induce cell death
38 | O=C(CSc1nc2ccccc2[nH]1)N1CCOCC1 [TTC-21, 2-((1H-benzo[d]imidazol-2-yl)thio)-1-morpholinoethan-1-one] | reduced activity
39 | O=C(CSc1ncc[nH]1)N1CCOCC1 [TTC-22, 2-((1H-imidazol-2-yl)thio)-1-morpholinoethan-1-one] | reduced activity
40 | O=C(CSc1nc2c([nH]1)CCCC2)N1CCOCC1 [TTC-23, 1-morpholino-2-((4,5,6,7-tetrahydro-1H-benzo[d]imidazol-2-yl)thio)ethan-1-one] | reduced activity
